Experimental data taken from patent publication US20230132088A1, “DETECTION OF GENE POLYMORPHISMS” (The Board of Trustees of the Leland Stanford Junior …, priority 2020, published 2023).

Assay: Population pharmacokinetic analysis of INH clearance in tuberculosis patients, by predicted NAT2 acetylator type
Conditions: human, plasma, INH clearance rate (median), 48 pulmonary TB patients

In the case of `NNC(=O)c1ccncc1` [INH, isoniazid], the clearance (predicted fast (rapid) acetylators) is reported as 778 mL/min, the clearance (predicted intermediate acetylators) is reported as 683 mL/min and the clearance (predicted slow acetylators, standardized weight-based dosing) is reported as 322 mL/min.
